Experimental data: article PMC12645998, “Optimization of VE607 to generate analogs with improved neutralization activities against SARS-CoV-2 variants” (Journal of Virology, 2025)
Where two headings read alike, the source gives them in different places.

Legend:
[1] = system: pseudoviral particles carrying VSV-G; test: microbe, parasite or virus in culture; format: cell-based; conditions: Vesicular stomatitis virus, 293T/ACE2, read-out: IC50 VSV-G
[2] = system: pseudoviral particles carrying SARS-CoV-1 S; test: microbe, parasite or virus in culture; format: cell-based; conditions: Severe acute respiratory syndrome coronavirus, 293T/ACE2, read-out: IC50 SARS-CoV-1
[3] = system: pseudoviral particles bearing the Spike glycoprotein from SARS-CoV-2; test: microbe, parasite or virus in culture; format: cell-based; conditions: pseudovirus, 293T-ACE2 cells, compounds up to 100 µM
[4] = Solubility in phosphate-buffered saline
[5] = Severe acute respiratory syndrome coronavirus 2, 293T/ACE2, read-out: IC50 SARS-CoV-2, Table 1

SMILES	IC50 [1] [µM]	IC50 [2] [µM]	IC50 [3, 5] [µM]	Solubility in phosphate-buffered saline (PBS) [4]	IC50 ([3]; read-out: IC50 SARS-CoV-2, Table 1) [µM]
CNC[C@@H](O)COc1cccc(Br)c1 [Compound 49]	> 100	> 100	> 100	–	–
O[C@H](CNCc1ccccc1OC(F)(F)F)COc1cccc(OC[C@H](O)CNCc2ccccc2OC(F)(F)F)c1 [Compound 23]	–	–	–	b Insoluble in phosphate-buffered saline (PBS).	–
COc1ccc(CNC[C@@H](O)COc2cc(Br)cc(OC[C@H](O)CNCc3ccc(OC)cc3)c2)cc1 [Compound 38]	4.09	0.66	1.03	–	–
CC(C)CNC[C@@H](O)COc1cccc(C(C)(C)C)c1 [Compound 61]	> 100	73.7	> 100	–	–
CN1CCN(C[C@@H](O)COc2cccc(OC[C@H](O)CN3CCN(C)CC3)c2)CC1 [Compound 17]	74.9	19.9	1.76	–	–
CN1CCN(C[C@@H](O)COc2cccc(Br)c2)CC1 [Compound 53]	> 100	> 100	> 100	–	–
CN(C)C[C@@H](O)COc1cccc(C(C)(C)C)c1 [Compound 62]	> 100	0.934	84.7	–	–
CN1CCN(C[C@@H](O)COc2cccc(F)c2)CC1 [Compound 59]	> 100	> 100	> 100	–	–
CN(C)C[C@@H](O)COc1ccccc1 [Compound 45]	> 100	13.9	> 100	–	–
CNC[C@@H](O)COc1cccc(OC[C@H](O)CNC)c1 [Compound 25]	2.69	0.45	> 100	–	–
CCN(C)C[C@@H](O)COc1cccc(F)c1 [Compound 57]	> 100	6.17	> 100	–	–
CCN(CC)C[C@@H](O)COc1ccccc1 [Compound 47]	> 100	> 100	> 100	–	–
CCN(CC)C[C@@H](O)COc1cccc(C(C)(C)C)c1 [Compound 64]	> 100	57.4	> 100	–	–
CN1CCN(C[C@@H](O)COc2ccccc2)CC1 [Compound 48]	> 100	> 100	> 100	–	–
CCN(C)C[C@@H](O)COc1cccc(C(C)(C)C)c1 [Compound 63]	> 100	4.66	> 100	–	–
CN(C)C[C@@H](O)COc1cccc(OC[C@H](O)CN(C)C)c1 [Compound 15]	70.7	2.54	1.64	–	–
O[C@@H](COc1cc(Br)cc(OC[C@H](O)CN2CCOCC2)c1)CN1CCOCC1 [Compound 29]	> 100	30.5	2.65	–	–
O[C@H](CNCc1ccccc1)COc1cc(Br)cc(OC[C@H](O)CNCc2ccccc2)c1 [Compound 34]	4.71	0.34	0.49	–	–
Cc1cccc(N2CCN(C[C@@H](O)COc3cc(Br)cc(OC[C@H](O)CN4CCN(c5cccc(C)c5)CC4)c3)CC2)c1 [Compound 31]	–	–	–	b Insoluble in phosphate-buffered saline (PBS).	–
CC(C)CNC[C@@H](O)COc1cc(Br)cc(OC[C@H](O)CNCC(C)C)c1 [Compound 36]	5.05	0.22	0.32	–	–
CN(C)C[C@@H](O)COc1cccc(F)c1 [Compound 56]	> 100	19.5	> 100	–	–
O[C@@H](COc1cc(Br)cc(OC[C@H](O)CN2CCCCC2)c1)CN1CCCCC1 [Compound 26]	2.39	0.381	0.44	–	0.443
O[C@@H](COc1ccccc1)CN1CCCCC1 [Compound 42]	> 100	0.912	1.35	–	–

SMILES	IC50 [1] [µM]	IC50 [2] [µM]	IC50 [3, 5] [µM]	Solubility in phosphate-buffered saline (PBS) [4]	IC50 ([3]; read-out: IC50 SARS-CoV-2, Table 1) [µM]
COc1ccc(CNC[C@@H](O)COc2cccc(OC[C@H](O)CNCc3ccc(OC)cc3)c2)cc1 [Compound 22]	2.85	1.85	0.57	–	–
CCN(C)C[C@@H](O)COc1cccc(Br)c1 [Compound 52]	> 100	51.8	> 100	–	–
O[C@@H](COc1cccc(OC[C@H](O)CN2CCC(O)(c3ccc(Cl)cc3)CC2)c1)CN1CCC(O)(c2ccc(Cl)cc2)CC1 [Compound 19]	1.35	1.91	0.52	–	–
CN1CCN(C[C@@H](O)COc2cccc(C(C)(C)C)c2)CC1 [Compound 65]	> 100	22	45.7	–	–
CN(C)C[C@@H](O)COc1cccc(Br)c1 [Compound 51]	> 100	17.3	> 100	–	–
O[C@H](CNC1CCOCC1)COc1cccc(OC[C@H](O)CNC2CCOCC2)c1 [Compound 24]	1.38	> 100	0.38	–	–
CCN(CC)C[C@@H](O)COc1cccc(F)c1 [Compound 58]	> 100	> 100	> 100	–	–
CNC[C@@H](O)COc1cccc(C(C)(C)C)c1 [Compound 60]	> 100	45.5	> 100	–	–
O[C@@H](COc1cccc(OC[C@H](O)CN2CCOCC2)c1)CN1CCOCC1 [Compound 16]	> 100	> 100	> 100	–	–
CNC[C@@H](O)COc1cc(Br)cc(OC[C@H](O)CNC)c1 [Compound 41]	> 100	0.31	1.17	–	–
CNC[C@@H](O)COc1cccc(F)c1 [Compound 54]	> 100	55	> 100	–	–
CC(C)CNC[C@@H](O)COc1cccc(F)c1 [Compound 55]	> 100	> 100	> 100	–	–
C=CCNC[C@@H](O)COc1cc(Br)cc(OC[C@H](O)CNCC=C)c1 [Compound 35]	26.4	0.62	0.7	–	–
CNC[C@@H](O)COc1ccccc1 [Compound 43]	> 100	62.6	> 100	–	–
CCN(CC)C[C@@H](O)COc1cc(Br)cc(OC[C@H](O)CN(CC)CC)c1 [Compound 28]	> 100	17.5	1.79	–	–
O[C@H](CNC1CCOCC1)COc1cc(Br)cc(OC[C@H](O)CNC2CCOCC2)c1 [Compound 40]	> 100	0.6	3.63	–	–
CC(C)CNC[C@@H](O)COc1cccc(Br)c1 [Compound 50]	> 100	> 100	> 100	–	–
C=CCNC[C@@H](O)COc1cccc(OC[C@H](O)CNCC=C)c1 [Compound 21]	> 100	41.1	47.9	–	–
CCN(C)C[C@@H](O)COc1cccc(OC[C@H](O)CN(C)CC)c1 [Compound 20]	> 100	0.57	1.18	–	–
OC(COc1cccc(OCC(O)CN2CCCCC2)c1)CN1CCCCC1 (stereo not drawn) [VE607]	> 100	0.74	2.66	–	–
CC(C)CNC[C@@H](O)COc1ccccc1 [Compound 44]	> 100	5.95	> 100	–	–
CCN(C)C[C@@H](O)COc1ccccc1 [Compound 46]	> 100	> 100	> 100	–	–
O[C@H](CNCc1ccncc1)COc1cc(Br)cc(OC[C@H](O)CNCc2ccncc2)c1 [Compound 37]	3.89	1.29	1.37	–	–
